For data set [1], the system named is P. falciparum CQ-sensitive D10. The experiment in a line: In vitro antimalarial assay (pLDH), Pf D10 strain. Format: cell-based, Plasmodium falciparum. The settings on record: for IC50: CQ-sensitive strain, 72 h, pLDH readout, read-out: D10 (CQ-S) Mean ± S.D. IC50; for Ratio IC50 cpd/IC50 DHA: D10 strain; for SI IC50WEHI-164/IC50 cpd: selectivity index versus D10 strain. Here is the method:
(§1) Compounds were dissolved in either water or DMSO and then diluted with medium to achieve the required concentrations (final DMSO concentration <1%, which is non-toxic to the parasite). […] Parasite growth was determined spectrophotometrically (OD650) by measuring the activity of the parasite lactate dehydrogenase (pLDH) according to a modification of the method of Makler in control and drug-treated cultures.
(§2) As a blank, uninfected RBCs were used for the antimalarial assays or media without cells for the cytotoxicity assays. The percent viability was plotted as a function of drug concentrations, and the curve fitting was obtained by nonlinear regression analysis using a four parameter logistic method (software Gen5 1.10 provided with the Synergy4 plate reader [Biotek]).

The conditions of data set [2]: human; cited from earlier work.
On the set-up of data set [3]: method as in earlier work. The settings on record: 28 (artemisone), 29 (DHA); cited from earlier work.
For data set [4], the system named is mouse fibrosarcoma cell line WEHI-164. The experiment in a line: Cytotoxicity, MTT assay, WEHI-164. Format: cell-based. The settings on record: MTT, 72 h, read-out: WEHI-164 Mean ± S.D. IC50. On the technique in general: Tetrazolium dyes change colour on reduction, which living cells bring about.
For data set [5], the system named is myelogenous leukemia cell line K562. The experiment in a line: Cytotoxicity, MTT assay, K562. The settings on record: Homo sapiens, K562; MTT assay conducted for 72 h; read-out: Mean (±S.D.) IC50 K562. The data set is classed as cell-based, human. Here is the method:
(§3) Selected compounds were carried forward for screening against the immortalized myelogenous leukemia, K562, human microvascular endothelial cells (HMEC-1) and fresh human fibroblasts HDF (Table 2) using the MTT assay, as above.
(§4) A long term microvascular endothelial cell line (HMEC-1) immortalized by SV 40 large T antigen was kindly provided by Dr. Francisco J. Candal, Center for Disease Control, Atlanta, GA, USA. […] Fibroblasts from skin biopsies were maintained in DMEM (EuroClone, Pero, Italy) supplemented with 10% fetal calf serum (HyClone, Logan, UT, USA), 2 mM glutamine, 100 U/mL of penicillin and 100 µg/mL of streptomycin.
(§5) Cells were then treated with serial dilutions of test compounds and cell proliferation evaluated using the MTT assay as previously described. […] All the tests were performed in triplicate at least three times.
as §2

For data set [6], the system named is fresh human dermal fibroblasts HDF. The experiment in a line: Cytotoxicity, MTT assay, HDF. The data set is classed as cell-based. The settings on record: Fibroblast, MTT assay conducted for 72 h, read-out: Mean (±S.D.) IC50 HDF. How it is done: as §3, §4, §5, §2
Data set [7] deals with human microvascular endothelial cells (HMEC-1). Description: Cytotoxicity, MTT assay, HMEC-1. Format: cell-based. The following applies: MTT assay conducted for 72 h, read-out: Mean (±S.D.) IC50 HMEC. Here is the method:
as §3, §4, §5, §2

For data set [8], the system named is Plasmodium falciparum (Pf) W2. The following applies: Pf W2 in vitro; cited from earlier work.
For data set [9], the system named is Plasmodium falciparum (Pf) D6. The settings on record: Pf D6 in vitro; cited from earlier work.
Data set [10] deals with P. falciparum CQ-resistant W-2. The experiment in a line: In vitro antimalarial assay (pLDH), Pf W-2 strain. The data set is classed as cell-based, Plasmodium falciparum. The following applies: for IC50: 72 h, CQ-resistant strain, pLDH readout, read-out: W-2 (CQ-R) Mean ± S.D. IC50; for Ratio IC50 cpd/IC50 DHA: W-2 strain; for SI IC50WEHI-164/IC50 cpd: selectivity index versus W-2 strain. How it is done:
as §1, §2

The conditions of data set [11]: fold more active; cited from earlier work.
For data set [12] the following is noted: cited from earlier work.
The subject of data set [13] is different strains of Plasmodium falciparum (Pf). The experiment in a line: In vitro antimalarial assay (pLDH), summary over different Pf strains. The following applies: Plasmodium falciparum; range over D10 and W-2 strains; read-out: IC50 against different strains of Plasmodium falciparum. Format: cell-based. Here is the method:
as §1, §2

The next data set relates to Pf. The settings on record: fold more active; cited from earlier work.
[14] abbreviates: Plasmodium falciparum, D10, 72 h.

Each structure is given as a SMILES string. Like-named read-outs stand apart in the source and are kept apart here.

`C[C@H]1[C@@H](O)O[C@@H]2O[C@@]3(C)CC[C@H]4[C@H](C)CC[C@@H]1[C@@]24OO3` [DHA 2, dihydroartemisinin, reference compound]: the IC50 in data set [1] (setting [14]) amounted to 3.4 ± 1.6 nM; in [4] (Mus musculus, WEHI-164, 72 h), 720 ± 140 nM; in data set [5] it was 2760 ± 660 nM; in data set [6] it was 88700 ± 13300 nM; in [7], 1160 ± 400 nM. Further, the “half-life of antimalarial activity” value in data set [2] is reported as ~ 3 h. For the same compound, the elimination half-life in data set [3] was ~ 1 h. Besides, the plasma clearance in data set [3] was ~ 5.4 L/h/kg. Moreover, in data set [3], the volume of distribution is reported as 7.7 L/kg.

In the case of `CC1CCC2C(C)C(OC3OC(CO)C(O)C(O)C3O)OC3OC4(C)CCC1C32OO4` (stereo not shown) [Compound 12], the values for the IC50 in data set [8] and in data set [9] were 79.7 nM and 29.4 nM, respectively.

For `CC1CCC2C(C)C(N3CCN(C4OC(CO)C(OC5OC(CO)C(O)C(O)C5O)C(O)C4O)CC3)OC3OC4(C)CCC1C32OO4` (stereo not shown) [Compound 21], the entries for the “Ratio IC50 cpd/IC50 DHA” value in data set [1] and in data set [10] were 0.56 and 1.0, respectively. Further, the IC50 is 1.9 ± 1.1 nM in data set [1] (setting [14]); 1.5 ± 0.5 nM in [10] (Plasmodium falciparum); 250 ± 90 nM in data set [4] (Mus musculus, WEHI-164, 72 h); 780 ± 150 nM in [5]; 534000 ± 9900 nM in [6]; 2500 ± 800 nM in [7]. Besides, the “SI IC50WEHI-164/IC50 cpd” value in data set [1] is on record as 131; in [10] it was 166.

On to `CC1CCC2C(C)C(OC3OC(CO)C(O)C(O)C3O)OC3OC4(C)CCC1C32OO4` (stereo not shown) [Compound 11], for which the IC50 in [8] is 76.3 nM; in data set [9] it was 272 nM.

`CC1CCC2C(C)C(N3CCN(C4OC(CO)C(O)C4O)CC3)OC3OC4(C)CCC1C32OO4` (stereo not shown) [Compound 24]: the IC50 in data set [1] is 4.8 ± 2.9 nM; in [10], 4.1 ± 3.2 nM; in data set [4] it was 490 ± 200 nM; in data set [5], 870 ± 50 nM; in [6], 389000 ± 8600 nM; in data set [7], 2390 ± 1510 nM. For the same compound, the results for the “Ratio IC50 cpd/IC50 DHA” value in data set [1] and in [10] were 1.4 and 2.7, respectively. The entries for the “SI IC50WEHI-164/IC50 cpd” value in [1] and in data set [10] were 102 and 119, respectively.

As for `C[C@@H]1CC[C@H]2[C@@H](C)C(=O)O[C@@H]3O[C@@]4(C)CC[C@@H]1[C@]32OO4` [artemisinin 1, artemisinin], the IC50 in [8] was 2.4 nM; in data set [9], 10.4 nM.

With `CC1CCC2C(C)C(N3CCN(C4OC(CO)C(O)C(O)C4O)CC3)OC3OC4(C)CCC1C32OO4` (stereo not shown) [Compound 18], the IC50 in data set [1] was found to be 1.3 ± 0.1 nM; in data set [10], 1.2 ± 0.3 nM; in data set [4], 280 ± 80 nM; in data set [5], 810 ± 240 nM; in data set [6], 382000 ± 31200 nM; in [7], 4410 ± 2290 nM. The “Ratio IC50 cpd/IC50 DHA” value turned out to be 0.38 in [1] and 0.8 in data set [10]. Besides, the “SI IC50WEHI-164/IC50 cpd” value in data set [1] was determined as 215; in data set [10], 233.

`C[C@H]1[C@H](N2CCS(=O)(=O)CC2)O[C@@H]2O[C@@]3(C)CC[C@H]4[C@H](C)CC[C@@H]1[C@@]24OO3` [Artemisone 7, artemisone, reference compound]: the “Ratio IC50 cpd/IC50 DHA” value in data set [1] is 0.32; in data set [10], 0.6. Further, the concentration for half-maximal inhibition (IC50) is 1.1 ± 0.4 nM in data set [1] (setting [14]); 0.9 to 1.1 nM in data set [13]; 0.9 ± 0.4 nM in data set [10] (Plasmodium falciparum); 296 ± 59 nM in [4] (Mus musculus, WEHI-164, 72 h); 260 ± 40 nM in data set [5]; 88300 ± 33800 nM in data set [6]. Further, the results for the “SI IC50WEHI-164/IC50 cpd” value in data set [1] and in data set [10] were 269 and 328, respectively. In addition, the “activity relative to artesunate 4 in vivo” value in [11] is reported as “at least three-fold”. Also, in data set [12], the “neurotoxicity in vitro and in vivo” value was “negligible neurotoxicity”. For the same compound, the elimination half-life in data set [3] is listed as ~ 3 h. Further, the plasma clearance in data set [3] is recorded as ~ 3.5 L/h/kg. For the same compound, the volume of distribution in [3] was 14.5 L/kg. In the data set with Pf, the “activity relative to artesunate 4 against Pf in vitro” value is “nine-fold”.

Usually IC50 stands for the midpoint of a concentration-inhibition curve.

Values taken from publication PMC6100044 (Molecules : A Journal of Synthetic Chemistry and Natural …, 2018).
